Measurements reported in US20040029965A1, “Formulations for reducing or eliminating toxicity of enviromental hormones containing ursodeoxycholic acid” (priority 2000, published 2004).

Test system: C57B1/6J mice
Assay: Organ weights (liver, kidneys, testes, epididymides) of mice after a single subcutaneous injection of TCDD
Type: in vivo
Method: Male C57B1/6J mice of 5 weeks old having the average weight of 18-22 g which had been bred in CRJ (Charles River in Japan) were purchased and used in this example as experimental animals. Those mice were acclimated under the constant breeding condition, i.e. the temperature of 24±1° C., the humidity of 60±10% and the light and darkness cycle of 12 hours, for one week and thereafter, utilized in the experiment.
2,3,7,8-tetrachlorodibenzo-p-dioxin (TCDD) dissolved in toluene (purity of 95% or more as a result of gas chromatography analysis), manufactured by Chem. Services Inc. in USA, was volatilized with nitrogen to obtain powder. The obtained powder was dissolved in a mixed solvent containing acetone and corn oil with a volume ratio of 1:6. The resulting solution each containing 110, 27.5 and 6.9 μg/kg of TCDD was subcutaneously injected to mice at a volume of 5 ml per body weight. […] The mice were supplied with the feed from 10 days before (pre-administration) to 60 days after administration of TCDD (post-administration).
Upon completion of the experiment for 60 days, the experimental animals were fasted for 24 hours and anesthetized with ether. Then, they were abdominally incised and blood was gathered from abdominal vena cava. They were sacrificed by the release of blood. Liver, kidneys, testes and epididymides were extracted and all the extracted organs were weighed. Only the testes were separately kept and observed under optical and electron microscopes. For biochemical finding test, serum was separated from blood with a centrifuge and the separated serum was analyzed with an automated blood biochemical analyzer, Dimension (Dupont, USA). Blood was put to another blood gathering bottle and then, analyzed with an automated blood cell analyzer, Celldyn (Abbott, USA).
The results are expressed as Mean±Standard Deviation values. For statistical analysis of the body weight, feed and water uptake, biochemical findings, hematological findings and the weight of organ in an acute toxicity test, verification was performed by one way analysis of variance (ANOVA) in case of equal distribution. In case significance was recognized in ANOVA, the Student's t-test was performed in the levels of p<0.05 and p<0.01.
The organs, i.e. liver, kidneys, testes and epididymides, were weighed and the results are shown in the following.

[1] = TCDD 6.9 μg/kg + UDCA 0.125 wt %
[2] = TCDD 6.9 μg/kg + UDCA 0.25 wt %
[3] = TCDD 27.5 μg/kg + UDCA 0.125 wt %
[4] = TCDD 27.5 μg/kg + UDCA 0.25 wt %
[5] = TCDD 27.5 μg/kg + UDCA 0.5 wt %

With `C[C@H](CCC(=O)O)[C@H]1CC[C@H]2[C@@H]3[C@@H](O)C[C@@H]4C[C@H](O)CC[C@]4(C)[C@H]3CC[C@]12C` [UDCA, 3α, 7β-dihydroxy-5β-cholanoic acid] as the molecule, how does the “Left epididymis Relative weight” value [1] read?
Its value is 0.121 ± 0.011 %.

What about the “Left epididymis Weight” value [1] of the same molecule?
Its value is 0.029 ± 0.003 g.

What about the “Left kidney Relative weight” value [1] of the same molecule?
The value was 0.480 ± 0.050%.

What about the “Left kidney Weight” value [1] of the same molecule?
Its value is 0.116 ± 0.014 g.

And the “Left testis Relative weight” value [1]?
Its value is 0.297 ± 0.020%.

And the “Left testis Weight” value [1]?
The value was 0.072 ± 0.006 g.

And the “Liver Relative weight” value [1]?
The value was 4.069 ± 0.167%.

And the “Liver Weight” value [1]?
Its value is 0.980 ± 0.073 g.

And the “Right epididymis Relative weight” value [1]?
The value was 0.121 ± 0.014%.

And the “Right epididymis Weight” value [1]?
Its value is 0.029 ± 0.003 g.

And the “Right kidney Relative weight” value [1]?
The value was 0.511 ± 0.049%.

And the “Right kidney Weight” value [1]?
Its value is 0.123 ± 0.008 g.

And the “Right testis Relative weight” value [1]?
Its value is 0.304 ± 0.020%.

What about the “Right testis Weight” value [1] of the same molecule?
The value was 0.073 ± 0.007 g.

And the “Left epididymis Relative weight” value [2]?
Its value is 0.121 ± 0.011 %.

And the “Left epididymis Weight” value [2]?
Its value is 0.030 ± 0.003 g.

And the “Left kidney Relative weight” value [2]?
The value was 0.484 ± 0.036%.

What about the “Left kidney Weight” value [2] of the same molecule?
The value was 0.119 ± 0.009 g.

What about the “Left testis Relative weight” value [2] of the same molecule?
Its value is 0.287 ± 0.036%.

And the “Left testis Weight” value [2]?
The value was 0.071 ± 0.008 g.

What about the “Liver Relative weight” value [2] of the same molecule?
Its value is 3.870 ± 0.289%.

And the “Liver Weight” value [2]?
The value was 0.954 ± 0.057 g.

What about the “Right epididymis Relative weight” value [2] of the same molecule?
The value was 0.115 ± 0.009%.

What about the “Right epididymis Weight” value [2] of the same molecule?
Its value is 0.029 ± 0.002 g.

And the “Right kidney Relative weight” value [2]?
The value was 0.500 ± 0.048%.

What about the “Right kidney Weight” value [2] of the same molecule?
Its value is 0.123 ± 0.013 g.

And the “Right testis Relative weight” value [2]?
Its value is 0.290 ± 0.030%.

What about the “Right testis Weight” value [2] of the same molecule?
Its value is 0.072 ± 0.008 g.

And the “Left epididymis Relative weight” value (TCDD 6.9 μg/kg + UDCA 0.5 wt %)?
Its value is 0.121 ± 0.010 %.

What about the “Left epididymis Weight” value (TCDD 6.9 μg/kg + UDCA 0.5 wt %) of the same molecule?
Its value is 0.029 ± 0.003 g.

And the “Left kidney Relative weight” value (TCDD 6.9 μg/kg + UDCA 0.5 wt %)?
Its value is 0.500 ± 0.025%.

And the “Left kidney Weight” value (TCDD 6.9 μg/kg + UDCA 0.5 wt %)?
The value was 0.121 ± 0.007 g.

And the “Left testis Relative weight” value (TCDD 6.9 μg/kg + UDCA 0.5 wt %)?
The value was 0.310 ± 0.050%.

What about the “Left testis Weight” value (TCDD 6.9 μg/kg + UDCA 0.5 wt %) of the same molecule?
Its value is 0.075 ± 0.010 g.

What about the “Liver Relative weight” value (TCDD 6.9 μg/kg + UDCA 0.5 wt %) of the same molecule?
Its value is 4.258 ± 0.327%.

And the “Liver Weight” value (TCDD 6.9 μg/kg + UDCA 0.5 wt %)?
Its value is 1.028 ± 0.073 g.

And the “Right epididymis Relative weight” value (TCDD 6.9 μg/kg + UDCA 0.5 wt %)?
The value was 0.114 ± 0.015%.

And the “Right epididymis Weight” value (TCDD 6.9 μg/kg + UDCA 0.5 wt %)?
The value was 0.027 ± 0.004 g.

What about the “Right kidney Relative weight” value (TCDD 6.9 μg/kg + UDCA 0.5 wt %) of the same molecule?
The value was 0.516 ± 0.043%.

And the “Right kidney Weight” value (TCDD 6.9 μg/kg + UDCA 0.5 wt %)?
Its value is 0.125 ± 0.009 g.

What about the “Right testis Relative weight” value (TCDD 6.9 μg/kg + UDCA 0.5 wt %) of the same molecule?
The value was 0.307 ± 0.031%.

And the “Right testis Weight” value (TCDD 6.9 μg/kg + UDCA 0.5 wt %)?
The value was 0.074 ± 0.007 g.

What about the “Left epididymis Relative weight” value [3] of the same molecule?
The value was 0.112 ± 0.017%.

What about the “Left epididymis Weight” value [3] of the same molecule?
Its value is 0.027 ± 0.003 g.

What about the “Left kidney Relative weight” value [3] of the same molecule?
The value was 0.517 ± 0.056 %.

What about the “Left kidney Weight” value [3] of the same molecule?
The value was 0.127 ± 0.012 g.

And the “Left testis Relative weight” value [3]?
The value was 0.284 ± 0.025 %.

And the “Left testis Weight” value [3]?
Its value is 0.070 ± 0.005 g.

What about the “Liver Relative weight” value [3] of the same molecule?
Its value is 4.832 ± 0.327%.

And the “Liver Weight” value [3]?
Its value is 1.187 ± 0.086 g.

What about the “Right epididymis Relative weight” value [3] of the same molecule?
The value was 0.105 ± 0.015 %.

And the “Right epididymis Weight” value [3]?
The value was 0.026 ± 0.003 g.

What about the “Right kidney Relative weight” value [3] of the same molecule?
The value was 0.489 ± 0.055 %.

And the “Right kidney Weight” value [3]?
Its value is 0.120 ± 0.013 g.

What about the “Right testis Relative weight” value [3] of the same molecule?
The value was 0.285 ± 0.016 %.

And the “Right testis Weight” value [3]?
The value was 0.070 ± 0.003 g.

And the “Left epididymis Relative weight” value [4]?
Its value is 0.120 ± 0.018%.

What about the “Left epididymis Weight” value [4] of the same molecule?
The value was 0.029 ± 0.003 g.

And the “Left kidney Relative weight” value [4]?
The value was 0.508 ± 0.038 %.

What about the “Left kidney Weight” value [4] of the same molecule?
Its value is 0.125 ± 0.010 g.

What about the “Left testis Relative weight” value [4] of the same molecule?
Its value is 0.293 ± 0.032 %.

What about the “Left testis Weight” value [4] of the same molecule?
The value was 0.072 ± 0.007 g.

What about the “Liver Relative weight” value [4] of the same molecule?
The value was 4.428 ± 0.198%.

And the “Liver Weight” value [4]?
Its value is 1.088 ± 0.030 g.

What about the “Right epididymis Relative weight” value [4] of the same molecule?
Its value is 0.124 ± 0.020%.

What about the “Right epididymis Weight” value [4] of the same molecule?
Its value is 0.030 ± 0.005 g.

What about the “Right kidney Relative weight” value [4] of the same molecule?
The value was 0.508 ± 0.029 %.

What about the “Right kidney Weight” value [4] of the same molecule?
The value was 0.125 ± 0.007 g.

And the “Right testis Relative weight” value [4]?
The value was 0.290 ± 0.030 %.

What about the “Right testis Weight” value [4] of the same molecule?
The value was 0.071 ± 0.007 g.

And the “Left epididymis Relative weight” value [5]?
The value was 0.115 ± 0.015%.

What about the “Left epididymis Weight” value [5] of the same molecule?
The value was 0.025 ± 0.004 g.

What about the “Left kidney Relative weight” value [5] of the same molecule?
The value was 0.539 ± 0.040 %.

What about the “Left kidney Weight” value [5] of the same molecule?
Its value is 0.119 ± 0.011 g.

And the “Left testis Relative weight” value [5]?
The value was 0.304 ± 0.040 %.

And the “Left testis Weight” value [5]?
The value was 0.067 ± 0.011 g.

What about the “Liver Relative weight” value [5] of the same molecule?
Its value is 4.773 ± 0.250%.

And the “Liver Weight” value [5]?
The value was 1.057 ± 0.069 g.

And the “Right epididymis Relative weight” value [5]?
Its value is 0.132 ± 0.041%.

What about the “Right epididymis Weight” value [5] of the same molecule?
The value was 0.029 ± 0.011 g.
